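Protocol summary: plate cells (96-well), add compound at 5 concentrations, incubate 48 h, interpolate endpoints linearly. GI50 marks 50% less growth. TGI: concentration producing complete growth inhibition.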
Experiments:
Experiment in all cases: NCI tumour cell line growth inhibition, 48 h
[1] = test system: 786-0 renal
[2] = test system: A498 renal
[3] = test system: ACHN renal
[4] = test system: DU-145 prostate
[5] = test system: HCT-116 colon
[6] = test system: HS 578T breast
[7] = test system: MOLT-4 leukemia
[8] = test system: NCI-H226 lung
[9] = test system: NCI/ADR-RES ovarian
[10] = test system: UACC-257 melanoma

Row | Structure (SMILES) | GI50 [1] [µM] | TGI [1] [µM] | GI50 [2] [µM] | TGI [2] [µM] | GI50 [3] [µM] | TGI [3] [µM] | GI50 [4] [µM] | TGI [4] [µM] | GI50 [5] [µM] | TGI [5] [µM] | GI50 [6] [µM] | TGI [6] [µM] | GI50 [7] [µM] | TGI [7] [µM] | GI50 [8] [µM] | TGI [8] [µM] | GI50 [9] [µM] | TGI [9] [µM] | GI50 [10] [µM] | TGI [10] [µM]
1 | Cc1cc(O)c(-c2ccc([C@@H](C)CN(C)C)cc2)c2c1[nH]c(=O)c1sccc12 | 0.248 | 5.43 | 0.265 | 0.929 | 0.794 | 7.95 | 0.528 | 53.3 | 0.406 | 8.87 | 0.207 | 20.8 | 1.69 | 17.7 | 1.75 | 18.4 | 2.72 | 24.1 | 1.76 | 6.86
2 | N#Cc1cccc(C2C3=C(COC3=O)N(CCO)c3cc4c(cc32)OCO4)c1 (stereo not given) | 2.04 | > 50 | 1.2 | 4.14 | 3.53 | > 50 | 3 | > 50 | 1.43 | > 50 | 1.3 | 11.1 | 3.64 | > 50 | > 50 | > 50 | 3.46 | > 50 | > 50 | > 50
3 | C=C1CCC2C3(C)COC(c4ccccc4Cl)OC3CCC2(C)C1/C=C/C1=CCOC1=O (stereo not given) | > 100 | > 100 | > 100 | > 100 | 38.7 | > 100 | > 100 | > 100 | 4.48 | > 100 | > 100 | > 100 | 3.77 | > 100 | 14.3 | > 100 | 7.74 | > 100 | 9.09 | > 100
4 | CN(C)CCCNc1nc2ccccc2c2[nH]c3ccccc3c12 | 0.958 | 5.2 | 6.42 | 13.4 | 0.703 | 2.24 | 0.72 | 4.36 | 0.222 | 1.67 | 3.04 | 9.61 | 0.276 | 50 | 1.26 | 4.22 | 0.769 | 4.08 | 3.48 | 14.7
